According to PMC5719400, “Engineering an aldehyde dehydrogenase toward its substrates, 3-hydroxypropanal and NAD^+, for enhancing the production of 3-hydroxypropionic acid” (Scientific Reports, 2017):

Molecular target: T1, KGSADH (α-ketoglutaric semialdehyde dehydrogenase) (Azospirillum brasilense, UniProt Q1JUP4)
T1 construct: gene araE; N-terminal His6-tag (pQE80L), expressed in E. coli DH10β, Ni-NTA purified; catalytic residues E253 and C287
Assay: product inhibition, A340 activity assay
Assay type: biochemical
Details: 2 mM NAD+, 100 mM phosphate pH 8

T1 sequence (Q1JUP4 2-481): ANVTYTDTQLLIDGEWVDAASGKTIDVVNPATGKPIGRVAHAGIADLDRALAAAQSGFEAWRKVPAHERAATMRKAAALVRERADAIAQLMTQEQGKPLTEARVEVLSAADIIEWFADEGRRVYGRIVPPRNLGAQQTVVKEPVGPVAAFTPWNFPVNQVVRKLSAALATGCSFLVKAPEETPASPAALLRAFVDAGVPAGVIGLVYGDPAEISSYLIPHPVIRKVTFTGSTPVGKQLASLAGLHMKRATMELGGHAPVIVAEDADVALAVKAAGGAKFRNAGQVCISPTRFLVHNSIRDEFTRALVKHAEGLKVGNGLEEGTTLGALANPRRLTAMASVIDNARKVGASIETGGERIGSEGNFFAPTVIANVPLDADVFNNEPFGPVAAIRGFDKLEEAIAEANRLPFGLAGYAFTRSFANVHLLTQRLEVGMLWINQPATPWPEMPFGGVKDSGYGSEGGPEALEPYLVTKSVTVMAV

O=C(O)CCO [3-HP, 3-hydroxypropionic acid]
% decrease in activity at 1 M: ~ 40%
